What was measured:
Type in all cases: in vivo
Phalaris minor = experiment: LTP post-emergence greenhouse test; conditions: Dosage 2000 g/ha
Alopecurus myosuroides = experiment: LTP post-emergence greenhouse test; conditions: Dosage 2000 g/ha
Lolium perenne = experiment: LTP post-emergence greenhouse test; conditions: Dosage 2000 g/ha
Poa annua = experiment: LTP post-emergence greenhouse test; conditions: Dosage 2000 g/ha
Echinochloa colon = experiment: LTP post-emergence greenhouse test; conditions: Dosage 2000 g/ha
Phalaris paradoxa = experiment: LTP post-emergence greenhouse test; conditions: Dosage 2000 g/ha
Chenopodium album = experiment: LTP post-emergence greenhouse test; conditions: Dosage 2000 g/ha
Conyza canadensis = experiment: LTP post-emergence greenhouse test; conditions: Dosage 2000 g/ha
Galium aparine = experiment: LTP post-emergence greenhouse test; conditions: Dosage 2000 g/ha
Stellaria media = experiment: LTP post-emergence greenhouse test; conditions: Dosage 2000 g/ha
Eragrostis tef = experiment: LTP post-emergence greenhouse test; conditions: Dosage 2000 g/ha
Amaranthus palmeri = experiment: LTP post-emergence greenhouse test; conditions: Dosage 2000 g/ha
Matricaria chamomilla = experiment: LTP post-emergence greenhouse test; conditions: Dosage 2000 g/ha
Abutilon theophrasti = experiment: LTP post-emergence greenhouse test; conditions: Dosage 2000 g/ha
Ambrosia artemisiifolia = experiment: LTP post-emergence greenhouse test; conditions: Dosage 2000 g/ha
Sinapis alba = experiment: LTP post-emergence greenhouse test; conditions: Dosage 2000 g/ha
Eragrostis teff = experiment: HTPS pre-emergence application on monocot model plant
Experimental: The plates were placed in a controlled greenhouse in a random order inside a bath which allows flooding irrigation with tap water supplemented with a fertilizer. Applied compounds were dissolved into a final solution of 50% acetone, 49.9% DDW, 0.1% tween-20. A 96 well plate was used as a stock plate for preparing application solutions for 8 repeats. Each row contained different concentrations per chemical. Maximal concentration for application was 1.5 Kg/Ha and dilution factor is 2.5. Chemical application was performed one day after thinning out in a chemical hood. […] applied on first two true leaves in each well using 12 channel pipettes. Data collection: RGB (red, green, blue) data for green area per well was documented using camera. Data is collected at a few time points during the experiment: one day after thinning and before chemical application, two-, six- or nine-days post application. During the last two documentations, visual phenotyping was performed. Data analysis: Given RGB results and visual phenotype scores, a student t-test conducted to compare between treatment and control performance for continuous data (RGB) and Fisher exact test to analyze the non-continuous data (phenotypic scores). Dose-Response curves are generated for each treatment to infer ED50 and max. inhibition parameters, using treatment's log concentration range as the […] and normalized green area. […] Plate imaging performed at 11 and 18 DAA. RGB data for green area per well was documented and used to extract % inhibition. Dose-Response curves were built for each treatment to infer EC50, EC75 and EC90 parameters, using treatment's log concentration range as the independent variable and normalized green area as the dependent variable. Treatments were compared to controls performance given RGB results and using student's t-test (p-val≤0.05). Compounds 104-154 were applied in either or both pre- and post-emergence mode to either or both monocot and dicot model plants, following the methods described above. The compounds were applied as a gradient of concentrations as listed above, from which the ED50 was calculated.

Arabidopsis thaliana = experiment: HTPS post-emergence application on miniature dicot model plant
Experimental: The plates were placed in a controlled greenhouse in a random order inside a bath which allows flooding irrigation with tap water supplemented with a fertilizer. Applied compounds were dissolved into a final solution of 50% acetone, 49.9% DDW, 0.1% tween-20. A 96 well plate was used as a stock plate for preparing application solutions for 8 repeats. Each row contained different concentrations per chemical. Maximal concentration for application was 1.5 Kg/Ha and dilution factor is 2.5. Chemical application was performed one day after thinning out in a chemical hood. […] applied on first two true leaves in each well using 12 channel pipettes. Data collection: RGB (red, green, blue) data for green area per well was documented using camera. Data is collected at a few time points during the experiment: one day after thinning and before chemical application, two-, six- or nine-days post application. During the last two documentations, visual phenotyping was performed. Data analysis: Given RGB results and visual phenotype scores, a student t-test conducted to compare between treatment and control performance for continuous data (RGB) and Fisher exact test to analyze the non-continuous data (phenotypic scores). Dose-Response curves are generated for each treatment to infer ED50 and max. inhibition parameters, using treatment's log concentration range as the […] variable and normalized green area. Plate imaging performed at 11 and 18 DAA. RGB data for green area per well was documented and used to extract % inhibition. Dose-Response curves were built for each treatment to infer EC50, EC75 and EC90 parameters, using treatment's log concentration range as the independent variable and normalized green area as the dependent variable. Treatments were compared to controls performance given RGB results and using student's t-test (p-val≤0.05). Compounds 104-154 were applied in either or both pre- and post-emergence mode to either or both monocot and dicot model plants, following the methods described above. The compounds were applied as a gradient of concentrations as listed above, from which the ED50 was calculated.

[1] = system: monocot and eudicot weeds species; experiment: In-planta LTP weed panel, overall assessment; conditions: monocot and eudicot weeds species; both post-emergence and pre-emergence; most of the species tested
[2] = dose-response of normalized green area

## C[C@@H](O)[C@@H](N)CCCCC(=O)O [Compound 104, (6S,7R)-6-amino-7-hydroxyoctanoic acid]
Phalaris minor
  Herbicidal activity (In-planta), LTP-Post emergence, Phalaris minor: 20-30
Alopecurus myosuroides
  Herbicidal activity (In-planta), LTP-Post emergence, Alopecurus myosuroides: 95
Lolium perenne
  Herbicidal activity (In-planta), LTP-Post emergence, Lolium perenne: 85-90
Poa annua
  Herbicidal activity (In-planta), LTP-Post emergence, Poa annua: 90
Echinochloa colon
  Herbicidal activity (In-planta), LTP-Post emergence, Echinochloa colon: 95
Phalaris paradoxa
  Herbicidal activity (In-planta), LTP-Post emergence, Phalaris paradoxa: 80
Chenopodium album
  Herbicidal activity (In-planta), LTP-Post emergence, Chenopodium album: 90
Conyza canadensis
  Herbicidal activity (In-planta), LTP-Post emergence, Conyza canadensis: 95
Galium aparine
  Herbicidal activity (In-planta), LTP-Post emergence, Galium aparine: 70
Stellaria media
  Herbicidal activity (In-planta), LTP-Post emergence, Stellaria media: 95
Eragrostis tef
  Herbicidal activity (In-planta), LTP-Post emergence, Eragrostis tef: 60-100
Amaranthus palmeri
  Herbicidal activity (In-planta), LTP-Post emergence, Amaranthus palmeri: 90
Matricaria chamomilla
  Herbicidal activity (In-planta), LTP-Post emergence, Matricaria chamomilla: 70-80
Abutilon theophrasti
  Herbicidal activity (In-planta), LTP-Post emergence, Abutilon theophrasti: 80
Ambrosia artemisiifolia
  Herbicidal activity (In-planta), LTP-Post emergence, Ambrosia artemisiifolia: 70-80
Sinapis alba
  Herbicidal activity (In-planta), LTP-Post emergence, Sinapis alba: 60
Eragrostis teff; [2]
  ED50 (g/ha): 35 g/ha
Eragrostis teff; green area (RGB)
  Max Inhibition (%): 100%
Arabidopsis thaliana; Arabidopsis thaliana, post-emergence, green area (RGB), read-out: Max Inhibition (%)
  Emax: 100%
Arabidopsis thaliana; [2]
  ED50 (g/ha): 0.2 g/ha
[1]
  control of weeds (in words): excellent control

— patent US20230331685A1, “HERBICIDAL COMPOUNDS AND METHODS OF USE THEREOF” (AG Plenus Ltd, priority 2020, published 2023)
